Here are results for eight molecules from article PMC9850094, “Chemical synthesis of a reported p47phox/p22phox inhibitor and characterization of its instability and irreproducible activity” (Frontiers in Pharmacology, 2023).

Series [1] concerns the target T1, p47phox^SH3A−B (Homo sapiens, UniProt P14598).
T1 sequence (P14598 151-286): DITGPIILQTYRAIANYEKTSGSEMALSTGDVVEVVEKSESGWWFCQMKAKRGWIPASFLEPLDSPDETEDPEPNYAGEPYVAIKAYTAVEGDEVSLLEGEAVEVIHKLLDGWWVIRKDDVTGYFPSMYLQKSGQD
Briefly: Covalent binding assay (LC−MS). Conditions: 15 min. How it is done: LC−MS spectra were obtained using the same LC–MS system, solvents, and gradient as for the chemical stability assay, but here the LC–MS was installed with a Poroshell C18 reverse-phase column (Agilent, Poroshell, 300SB-C18, 2.1 × 75 mm). Injection volume was 10 µL and the protein eluted at 3.2 min.
Mass source parameters: Ion polarity, positive mode; drying gas flow, 12 L/min at 250 °C; nebulizer, 35 psig; VCap, 3000 V; Fragmentor, 70 V; mass scan range, 100–2000 m/z. Mass peak deconvolution was carried as described in literature (Winkler, 2010) (https://www.bioprocess.org/esiprot/esiprot_form.php). (A) LC–MS […]
corresponding to the theoretical MW of p47phox SH3A–B (17300.38 Da). (B) LC–MS data of 0.2 mg/mL […]
17300.3 Da and another (see red arrows) is a protein adduct with MW of 17421.9 ± 0.29 Da (ΔMW relative to […]
p47phoxSH3A–B is 122 Da).
MW of 17574.0 Da ± 0.23 Da (ΔMW relative to p47phoxSH3A–B is 274 Da corresponding to an ebselene-protein […]
with p47phoxSH3A–B. Similar to a phenolic Mannich base, the reaction involves an LMH001-derived quinone methide intermediate that reacts with nucleophiles from the protein leading to a +122 Da protein adduct.
(1 picture or pasted object on this page, not shown here)

Series [2] relates to p47phox/p22phox interaction. Also on record: method as in Smith et al., 2012. Particulars: ref Smith et al., 2012; cited from earlier work.
Series [3] deals with T2, p47phox^SH3A−B (human His-tagged p47phox^151−286) (Homo sapiens, UniProt P14598).
T2 construct: human His-tagged p47phox^151−286
T2 sequence (P14598 151-286): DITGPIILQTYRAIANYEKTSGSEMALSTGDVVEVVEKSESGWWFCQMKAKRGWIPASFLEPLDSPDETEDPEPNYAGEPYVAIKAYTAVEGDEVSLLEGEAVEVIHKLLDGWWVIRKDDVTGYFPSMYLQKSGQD
Briefly: Fluorescence polarization (FP) competition assay. It counts as binding. Particulars: for Ki: over 2–20 min. On the procedure:
Synthesized compounds were then tested for their ability to inhibit the interaction between p47phox^SH3A−B and the fluorescent peptide probes in 1×HBST (2% DMSO). The non-fluorescent p22phox^151−162 peptide (Sequence: Ac-[…]-NH2) was used as a control. […] FP values were fitted to the equation Y = Bottom + (Top-Bottom)/{1 + 10^[(LogIC50-X)*HillSlope]}, where X is the logarithmic value of the compound concentration. Hereby, the IC50 value was obtained, which together with the K d value, probe and p47phox^SH3A−B concentrations was used to calculate the theoretical competitive inhibition constant, the K i value. […] Here, 5 and 8 µM of p47phox^SH3A−B concentration was used for Cy5-p22phox^149−162 and TAMRA-p22phox^151−162, respectively.

A short description of series [4]: Chemical stability assay (LC−MS). It is filed as physicochemical. How it is done:
A binary solvent system of buffer A (H2O/acetonitrile (MeCN)/formic acid, 95:5:0.1 v/v%) to buffer B (MeCN/formic acid, 99.9:0.1 v/v%) and a flow rate of 1 mL/min was used. Injection volume was 5 µL. Total sample run time was 6 min, and the percentage of buffer B increases from 0% to 100% during 0.25–4.25 min, maintains at 100% until 5 min, then decreases to 0% at 5.10 min, and stays at 0% until 6 min.

Series [5] relates to GST-p47phox^SH3A−B. Also on record: method as in Fan et al., 2022. Conditions: GST-p47phox^SH3A−B / FITC-labelled p22phox^151-162 peptide, ref Fan et al., 2022, cited from earlier work.
For series [6], the system named is NOX2. Also on record: method as in Fan et al., 2022. Conditions: COS-phox cells activated by PMA; ref Fan et al., 2022; read-out: IC50, NOX2 superoxide inhibition; cited from earlier work.
On the set-up of series [7]: method as in Fan et al., 2022. Particulars: mice, iv injection; ref Fan et al., 2022; cited from earlier work.
The target of series [8] is SH3A−B domain of p47phox. On the set-up: method as in Garsi et al., 2022. Particulars: ref Garsi et al., 2022; read-out: Kd (SPR); cited from earlier work.
For series [9], the target named is T3, NOX2 (Homo sapiens, UniProt P04839).
T3 construct: endogenous in cells
T3 sequence (P04839 2-570 limits assumed): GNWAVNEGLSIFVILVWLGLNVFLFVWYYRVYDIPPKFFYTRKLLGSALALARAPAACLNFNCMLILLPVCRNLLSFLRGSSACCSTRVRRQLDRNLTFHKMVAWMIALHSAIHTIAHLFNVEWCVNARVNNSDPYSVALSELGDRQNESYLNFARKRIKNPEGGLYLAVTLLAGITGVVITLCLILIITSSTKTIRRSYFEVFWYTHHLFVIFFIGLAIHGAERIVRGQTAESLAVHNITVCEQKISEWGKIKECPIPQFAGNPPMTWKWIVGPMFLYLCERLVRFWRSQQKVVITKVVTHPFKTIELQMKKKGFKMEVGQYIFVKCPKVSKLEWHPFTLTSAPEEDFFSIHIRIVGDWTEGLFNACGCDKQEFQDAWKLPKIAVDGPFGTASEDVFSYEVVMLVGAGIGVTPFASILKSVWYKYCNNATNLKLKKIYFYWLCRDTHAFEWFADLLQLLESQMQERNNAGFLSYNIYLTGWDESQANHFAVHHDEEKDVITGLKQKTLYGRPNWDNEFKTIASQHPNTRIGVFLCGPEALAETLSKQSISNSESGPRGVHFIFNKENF
T3 sequence (P13498 2-195 partner limits assumed): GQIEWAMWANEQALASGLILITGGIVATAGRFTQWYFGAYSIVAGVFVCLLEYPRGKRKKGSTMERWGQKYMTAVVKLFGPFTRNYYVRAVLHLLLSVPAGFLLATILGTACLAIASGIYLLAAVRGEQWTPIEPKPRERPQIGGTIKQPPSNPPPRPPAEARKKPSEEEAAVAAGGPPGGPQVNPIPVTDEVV
Briefly: NOX2 cell-based assay (WST1, PMA-activated PLB-985 cells). Conditions: PMA-stimulated differentiated PLB-985 cells, superoxide (WST1). On the procedure: The assay measures extracellular superoxide generated by PMA-activated NOX2 in PLB-985 cells using the cell-impermeable tetrazolium salt WST1 as probe ([Tan and Berridge, 2000]). […] NOX2 was activated by addition of phorbol-12-myristate-13-acetate PMA (10 nM final). Absorbance (OD440) was measured with a Spectramax Paradigm reader (Molecular Devices) for 3 h. To graph the data, the rate of superoxide was calculated for the first hour.

For series [10], the target named is T4, p47phox^SH3A-B (human His-tagged p47phox^151-286) (human, UniProt P14598 151-286).
T4 chain: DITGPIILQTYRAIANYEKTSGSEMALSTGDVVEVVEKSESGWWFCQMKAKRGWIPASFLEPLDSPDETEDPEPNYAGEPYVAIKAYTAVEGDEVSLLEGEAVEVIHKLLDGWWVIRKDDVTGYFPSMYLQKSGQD
Briefly: FP; 1×HBST.

The target in series [11] is T4, p47phox^SH3A-B (human His-tagged …). Briefly: FP; in water.
[12] abbreviates: tested as isolated compounds, 1×HBST, Cy5 or TAMRA probe, 2 or 20 min.

Where no end group is shown, it is not given here. TAMRA = carboxytetramethylrhodamine label; Cy5 = cyanine 5 label

Take `O=c1c2ccccc2[se]n1-c1ccccc1` [Ebselen]: the “Protein mass increase (ΔMW relative to p47phox^SH3A–B)” value in series [1] (200 µM compound, 0.2 mg/mL p47phox^SH3A−B, HBST) is 274 Da. Further, in series [1] (200 µM, HBST), the “Conversion of p47phox^SH3A−B to molecular adduct” value is “fully converted”. Moreover, the IC50 in [2] was 0.3 µM.

In the case of `O=C(OCc1cccc(O)c1O)c1ccc(O)c(CO)c1` [LMH001], the “Activity in the FP assay” value in [3] (up to 400 µM, 1×HBST, Cy5 or TAMRA probe, 2 or 20 min incubation) is reported as “did not show any activity”. For the same molecule, the “Activity in the FP assay in pure water” value in [3] (water instead of 1×HBST, Cy5 or TAMRA probe, 2 or 20 min) is “did not result in any measurable activity”. Further, the “Degradation in the HBST buffer as function of pH” value in series [4] (1×HBST pH 6 to 8, 30 min) was “increased with pH”. In addition, the LMH001 remaining in [4] (H2O, 5 min) was found to be 86%; in series [4] (H2O, 30 min) it was 76%; in series [4] (HBST, 5 min, 100 µM, relative to MeCN 5 min) it was 13%; in [4] (HBST, 30 min) it was 3%. For the same molecule, the “p47phox^SH3A−B modified” value in series [1] (200 µM (17-fold molar excess), HBST) was 20%–30%. Moreover, the “Conversion of p47phox^SH3A−B to adduct” value in [1] (200 µM, water) is listed as “negligible conversion”. In addition, the IC50 in [5] is 0.149 µM; in [6], […]. In addition, the Ki in series [5] (read-out: Ki (FP)) was 0.054 µM. The half-life in [7] was 2.52 min.

On to `N=C(N)NCCC[C@@H](CCCCC1CC1)NC(=O)[C@@H]1CCCN1C(=O)[C@@H]1CCCN1C(=O)[C@@H]1CCCN1C(=O)CCC(=O)Nc1cccc(-c2ccc(Cl)c(Cl)c2)c1` [compound 2], for which, in [8], the Kd was 0.043 µM.

On to `O=C(O)c1ccc(O)c(CO)c1` [compound 13], for which the “Activity in the FP assay” value in series [3] (setting [12]) was “inactive”. The “IC50, NOX2 inhibition” value in [9] is “no activity”.

On to `OCc1cccc(O)c1O` [compound 15], for which the “Activity in the FP assay” value in series [3] (setting [12]) is “inactive”. For the same molecule, the IC50 in [9] (read-out: IC50, NOX2 inhibition) was found to be 63 µM.

As to Ac-PPTNPPPRPPAE-NH2 [p22phox^151–162], the Ki in series [3] (1×HBST, probe Cy5-p22phox^149–162) was 14 to 22 µM; in [3] (1×HBST, probe TAMRA-p22phox^151–162), 17 to 31 µM; in series [3] (water, probe Cy5-p22phox^149–162) it was 170 to 220 µM; in [3] (water, probe TAMRA-p22phox^151–162) it was 140 to 155 µM.

B1: cyanine 5 (Cy5)-p22phox^149-162 (peptide)
chain: Cy5-KQPPTNPPPRPPAE
B1: the Kd was determined as 1.9 µM in series [10] and 12 µM in series [11].

B2: carboxytetramethylrhodamine (TAMRA)-p22phox^151-162 (peptide)
chain: {TAMRA}-PPTNPPPRPPAE
On to B2, for which the Kd was 7 µM in series [10] and 40 µM in [11].
